Holding throughout (test): Survival of bacteria inoculated into silver-treated water aliquots
Assay type in all cases: cell-based

In test [1] the test system is Bacillus cereus NCTC 10320. The settings on record: initial concentration 5.82. The procedure:
(§1) Several bacterial organisms, E. coli ATCC 11775, Pseudomonas aeruginosa ATCC 27853, and Bacillus cereus NCTC 10320 were inoculated into equal volumes of the abovementioned aliquots to achieve an initial bacterial concentration of approximately 10^6 cells per millilitre. After three predetermined time periods of 5 minutes, 1 hour, and 8 days, aliquots of each solution were withdrawn, and enumeration of surviving organisms was performed. All tests were conducted in duplicate.
(§2) All results are expressed in log10 units.

Another test relates to E. coli ATCC 11775. Particulars: initial concentration 5.81. Here is the method: as §1, §2
Test [2] relates to Pseudomonas aeruginosa ATCC 27853. The settings on record: initial concentration 5.62. The procedure: as §1, §2
The mark [3] stands for this setting: sodium hypochlorite 0.5 ppm, period 5 min.
Where [4] appears, read: sodium hypochlorite 0.5 ppm, period 1 hour.
The mark [5] stands for this setting: sodium hypochlorite 0.5 ppm, period 8 days.

Take `[Na+].[O-]Cl` [NaOCl, sodium hypochlorite, reference compound]: the figures for the “surviving organisms, Bacillus cerus” value in test [1] (setting [3]), in test [1] (setting [4]) and in test [1] (setting [5]) were 4.61 log10 units, 4.61 log10 units and 4.90 log10 units, respectively. Further, the “surviving organisms, E. coli” value came to 5.82 log10 units in the test with E. coli ATCC 11775 (setting [3]), 5.81 log10 units in the test with E. coli ATCC 11775 (setting [4]) and 4.48 log10 units in the test on E. coli ATCC 11775 (setting [5]). The results for the “surviving organisms, Pseudomonas aeruginosa” value in test [2] (setting [3]), in test [2] (setting [4]) and in test [2] (setting [5]) were 5.62 log10 units, 5.63 log10 units and 4.98 log10 units, respectively.
In the case of `[Ag]` [Silver, silver], the “surviving organisms, Bacillus cerus” value in test [1] (silver 50 ppb, period 5 min) came out at 4.60 log10 units; in test [1] (silver 50 ppb, period 1 hour) it was 2.30 log10 units; in test [1] (silver 50 ppb, period 8 days) it was 0 log10 units; in test [1] (silver 111 ppb, period 5 min), 4.20 log10 units; in test [1] (silver 111 ppb, period 1 hour) it was 2.00 log10 units; in test [1] (silver 111 ppb, period 8 days), 0 log10 units. For the same compound, the “surviving organisms, Bacillus cerus” value in test [1] (silver 190 ppb, period 5 min) stood at 4.28 log10 units; in test [1] (silver 190 ppb, period 1 hour) it was 1.93 log10 units; in test [1] (silver 190 ppb, period 8 days), 0 log10 units; in test [1] (silver 373 ppb, period 5 min) it was 4.19 log10 units; in test [1] (silver 373 ppb, period 1 hour), 0 log10 units; in test [1] (silver 373 ppb, period 8 days), 0 log10 units. Also, the “surviving organisms, E. coli” value with E. coli ATCC 11775 (silver 50 ppb, period 5 min) is 5.81 log10 units; in the test on E. coli ATCC 11775 (silver 50 ppb, period 1 hour), 4.79 log10 units; in the test with E. coli ATCC 11775 (silver 50 ppb, period 8 days) it was 0 log10 units; with E. coli ATCC 11775 (silver 111 ppb, period 5 min), 5.77 log10 units; in the test on E. coli ATCC 11775 (silver 111 ppb, period 1 hour) it was 4.48 log10 units; with E. coli ATCC 11775 (silver 111 ppb, period 8 days) it was 0 log10 units. For the same compound, the “surviving organisms, E. coli” value turned out to be 5.76 log10 units in the test on E. coli ATCC 11775 (silver 190 ppb, period 5 min); 3.74 log10 units in the test on E. coli ATCC 11775 (silver 190 ppb, period 1 hour); 0 log10 units in the test on E. coli ATCC 11775 (silver 190 ppb, period 8 days); 5.79 log10 units in the test with E. coli ATCC 11775 (silver 373 ppb, period 5 min); 3.88 log10 units in the test with E. coli ATCC 11775 (silver 373 ppb, period 1 hour); 0 log10 units in the test with E. coli ATCC 11775 (silver 373 ppb, period 8 days). The “surviving organisms, Pseudomonas aeruginosa” value in test [2] (silver 50 ppb, period 5 min) turned out to be 5.61 log10 units; in test [2] (silver 50 ppb, period 1 hour), 5.27 log10 units; in test [2] (silver 50 ppb, period 8 days), 3.23 log10 units; in test [2] (silver 111 ppb, period 5 min) it was 5.61 log10 units; in test [2] (silver 111 ppb, period 1 hour), 4.98 log10 units; in test [2] (silver 111 ppb, period 8 days) it was 2.59 log10 units. The “surviving organisms, Pseudomonas aeruginosa” value in test [2] (silver 190 ppb, period 5 min) came to 5.61 log10 units; in test [2] (silver 190 ppb, period 1 hour), 5.00 log10 units; in test [2] (silver 190 ppb, period 8 days), 1.10 log10 units; in test [2] (silver 373 ppb, period 5 min) it was 5.62 log10 units; in test [2] (silver 373 ppb, period 1 hour), 5.10 log10 units; in test [2] (silver 373 ppb, period 8 days) it was 2.00 log10 units.

Values taken from patent US8512725B2, “Method, material and system for controlled release of anti-microbial agents” (Bacstop Corporation Pty Ltd, priority 2004, dated 2013).
